Earlier results as cited in patent US11213604B2, “Composition for dressing cutaneous lesions and manufacturing method thereof” (priority 2016, dated 2022).

System: cutaneous leishmanial ulcers
Details: protocols (1), (3), (2) of Stahl et al., BMC Infectious Diseases 2014

sodium stilbogluconate
Median healing time: 9 weeks
